One assay has as its system OCI-Ly10 cells. The assay can be described thus: Proliferation-Inhibitory Test Against Diffuse Large-Cell B-Cell Lymphoma OCI-Ly10 Strain. It counts as cell-based. The settings on record: Homo sapiens, 96 hours, alamarBlue. In outline:
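In IMDM with 20% FBS, OCI-Ly10 cells (20000 cells/well) were exposed to compound at 0.9 nM to 30000 nM (0.3% DMSO final) for 96 hours. Viability was then read with alamarBlue reagent.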
(Resazurin is reduced to fluorescent resorufin, in cell work by metabolically active cells.)

Another assay concerns the target BTK (Homo sapiens (Human), UniProt Q06187). The assay can be described thus: Intracellular BTK Auto-Phosphorylation Activity Inhibition Test in Ramos cells. It counts as cell-based. The settings on record: test compound 0.03 μM, anti-IgM stimulation, pY223, read-out: Inhibitory Activity on BTK-phosphorization. The procedure: Ramos cells (2G6.4C10, ATCC No. CRL-1923) were cultured in a T75 flask containing RPMI-1640 medium (GIBCO, # A10491-01) supplemented with 10% FBS (AusGene) and 1% penicillin-streptomycin (Nacalai Tesque, Inc.) (hereinafter referred to as growth medium) in a 5% CO2 incubator.
The cultured Ramos cells were diluted to a cell density of 7.5×10^6 cells/mL with a serum-free RPMI-1640 (hereinafter referred to as medium) and kept at 37° C. for 45 minutes. The cell suspension was dispensed in 1 mL aliquots into 2.0 mL tubes. A 0.03 mM solution of the test substance in DMSO was diluted with the medium to make a 0.09 μM test compound solution, 500 μL of which was then added to the tubes and the incubation was conducted at 37° C. for 1 hour in the presence of the test compound at a final concentration of 0.03 μM. Thereafter, the anti-IgM antibody (Invitrogen, H15100) which had been diluted with the medium was added at a final concentration of 10 μg/mL, and the incubation was conducted at 37° C. for 10 minutes.
To the pellets obtained by recovering the cells via centrifugation, 100 μL of a lysis buffer [RIPA Buffer(×1)(Cell Signaling Technology, Inc.) supplemented with 1% Phosphatase inhibitor Cacktail 3 (Sigma Corporation, No. P0044), 1% Phosphatase inhibitor Cacktail (Nacalai Tesque, Inc., No. 07575) and 1 mM phenylmethylsulfonyl fluoride (PMSF)] was added and stirred gently and then allowed to stand for 10 minutes. The supernatant was recovered by centrifugation (15,000 rpm, 15 minutes) and the protein level was quantified. The portion was mixed with the SDS-sample buffer, allowed to react for 5 minutes at 95° C. to denature the protein, thereby obtaining a sample solution. Each 5 μL of the sample solutions was applied to each well containing a 5 to 20% gradient acrylamide gel (Nacalai Tesque, Inc., No. 13064-04) and electrophoresis was conducted. Thereafter, iBlot gel transfer system (Life Technologies Corporation) was used to transfer the proteins in the gel onto a PVDF membrane.
The PVDF membrane after transfer was blocked with 2% ECL prime blocking Reagent (GE Healthcare) and thereafter the reaction was conducted overnight at 4° C. using anti-BTK mouse antibody (BD transduction laboratory, No. 611116) or anti-phosphorylated BTK rabbit antibody (pY223, EPITOMICS, No. 2207-1) as a primary antibody. The unreacted primary antibody was washed with a TBST buffer (10 mM Tris-HCl (pH 7.5), 150 mM NaCl, 0.1% Tween 20) and then the reaction was conducted for 1 hour at room temperature in a TBST buffer supplemented with 2% ECL prime blocking Reagent using HRP-labeled anti-mouse IgG horse antibody (Cell Signaling Technology, No. 7076) or anti-rabbit IgG goat antibody (Cell Signaling Technology, No. 7074) as a secondary antibody. After washing the unreacted secondary antibody with the TBST buffer, Chemi-Lumi One Super (Nacalai Tesque, Inc.) was used to conduct a reaction in accordance with the attached protocol, and then the respective bands as chemiluminescences were detected with a CCD camera (GE Healthcare ImageQuant LAS 500). […] Each phosphorylated BTK band was corrected based on the total BTK.
The intracellular BTK autophosphorylation inhibiting activity was indicated with the mark “***” when 90% or more, with the mark “**” when 70% or more and less than 90%, and with the mark “*” when 50% or more and less than 70%.

A further assay deals with dephosphorylated BTK (Homo sapiens (Human), UniProt Q06187). The assay can be described thus: BTK Activity Inhibition Test (mobility shift assay). It counts as biochemical. The settings on record: 200 μM ATP, read-out: Inhibitory Activity on BTK. The essentials: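 Biotinylated human BTK was dephosphorylated with λ phosphatase and assayed by mobility shift, with FITC-SRCtide as substrate in 20 mM HEPES pH 7.5, 0.01% Triton X-100 and 2 mM DTT. The substrate mix held 4 μM substrate, 20 mM MgCl2 and 200 μM ATP, and the enzyme solution held 0.46 nM BTK (stock levels, not final). After 2 h at room temperature, % inhibition was derived from P/(P+S) and IC50 by log-concentration regression.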

In assay [1] the target is C481S mutant BTK [BTK(C481S)] (Homo sapiens (Human), UniProt Q06187, C481S). In words: C481S Mutant BTK Inhibitory Activity Test (mobility shift assay). Format: biochemical. The procedure:
(§1) The kinase activity was measured using QuickScout Screening Assist (trademark) MSA (commercially available kit manufactured by Carna Biosciences, Inc.) by mobility shift assay (MSA) method. The substrate of the kinase reaction was an FITC-labeled SRCtide peptide included in the kit. […] The 10 mM solution of the test compound in DMSO was further diluted with DMSO to 10 levels of the concentration (0.00003 mM, 0.0001 mM, 0.0003 mM, 0.001 mM, 0.003 mM, 0.01 mM, 0.03 mM, 0.1 mM, 0.3 mM, 1 mM), each of which was subjected to a 25-fold dilution with the assay buffer to obtain the drug solutions (4% DMSO solutions).
(§2) 5 μL of the drug solution or a control solution (4% DMSO-assay buffer), 5 μL of the substrate mixture solution, and 10 μL of the enzyme solution were mixed in the wells of a polypropylene 384-well plate and allowed to react at room temperature for 1 hour, and then quenched by adding 60 μL of the termination buffer included in the kit. Subsequently, the quantities of the substrates (S) and the phosphorylated substrate (P) in the reaction solution were measured using LabChip EZ Reader II system (manufactured by Caliper Life Sciences) according to the protocol of the assay kit.
(§3) The heights of the peaks of the isolated substrate and the phosphorylated substrate were represented as S and P, respectively, and a blank which contained the assay buffer instead of the enzyme solution was also measured.
(§4) The inhibition rate (%) of the test compound was calculated according to the following equation; Inhibition rate (%)=(1−(C−A)/(B−A))×100 • wherein, A, B and C represent P/(P+S) of the blank well, P/(P+S) of the control well and P/(P+S) of the compound-containing well, respectively.
(§5) The IC50 value was calculated via a regression analysis of the inhibition rate (%) and the test compound concentration (logarithmic value).

Another assay deals with wild type BTK [BTK(WT)] (Homo sapiens (Human), UniProt Q06187). The assay can be described thus: C481S Mutant BTK Inhibitory Activity Test, wild type BTK (mobility shift assay). It counts as biochemical. The settings on record: 120 μM ATP. The procedure: as §1, §2, §3, §4, §5
Sequence of wild type BTK [BTK(WT)] (Q06187 whole entry): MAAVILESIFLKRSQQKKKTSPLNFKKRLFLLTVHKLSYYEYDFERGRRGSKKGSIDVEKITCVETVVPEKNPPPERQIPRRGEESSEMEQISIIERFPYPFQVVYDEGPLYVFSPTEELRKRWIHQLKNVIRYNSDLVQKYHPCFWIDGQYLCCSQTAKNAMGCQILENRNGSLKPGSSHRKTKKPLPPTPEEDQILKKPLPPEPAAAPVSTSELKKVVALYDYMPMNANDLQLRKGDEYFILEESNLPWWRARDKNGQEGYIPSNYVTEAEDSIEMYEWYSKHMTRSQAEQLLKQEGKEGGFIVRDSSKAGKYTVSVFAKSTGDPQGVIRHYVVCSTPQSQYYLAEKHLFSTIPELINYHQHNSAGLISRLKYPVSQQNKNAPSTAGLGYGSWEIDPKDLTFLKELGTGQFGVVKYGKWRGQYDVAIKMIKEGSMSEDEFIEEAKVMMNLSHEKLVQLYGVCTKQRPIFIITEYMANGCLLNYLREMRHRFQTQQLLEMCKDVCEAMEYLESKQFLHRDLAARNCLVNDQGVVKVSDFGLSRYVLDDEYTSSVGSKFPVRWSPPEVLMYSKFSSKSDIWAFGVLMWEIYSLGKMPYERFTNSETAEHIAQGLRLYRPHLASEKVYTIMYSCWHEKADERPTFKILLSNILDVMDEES

Sequence of dephosphorylated BTK (Q06187 whole entry): as above
Sequence of BTK (Q06187 whole entry): as above
Sequence of C481S mutant BTK [BTK(C481S)] (Q06187 whole entry C481S): as the sequence (Q06187 whole entry) above, with C481S counted along it

Regarding `N#Cc1ccc(-c2cc3c(-c4cccc(-n5ccc6cc(C7CC7)cc(F)c6c5=O)c4CO)nc(N)nc3[nH]2)cc1` [Example 27, 4-{2-amino-4-[3-(6-cyclopropyl-8-fluoro-1-oxoisoquinolin-2(1H)-yl)-2-(hydroxymethyl)phenyl]-7H-pyrrolo[2,3-d]pyrimidin-6-yl}benzonitrile], the IC50 in the assay with OCI-Ly10 cells is 182 nM; on dephosphorylated BTK, below 10 nM. For the same compound, the inhibition at 0.03 µM on BTK was at least 90%.
Consider `CN1CCN(Cc2ccc(-c3cc4c(-c5cccc(-n6ccc7cc(C8CC8)cc(F)c7c6=O)c5CO)nc(N)nc4[nH]3)cc2)CC1` [Example 8, 2-[3-(2-amino-6-{4-[(4-methylpiperazin-1-yl)methyl]phenyl}-7H-pyrrolo[2,3-d]pyrimidin-4-yl)-2-(hydroxymethyl)phenyl]-6-cyclopropyl-8-fluoroisoquinolin-1(2H)-one], for which the IC50 in the assay with OCI-Ly10 cells is 4 nM; at dephosphorylated BTK it was below 10 nM; in assay [1] (C481S mutant BTK, 100 μM ATP), 0.43 nM; on wild type BTK [BTK(WT)], 0.33 nM. In addition, the inhibition at 0.03 µM at BTK was at least 90%. Besides, in assay [1] (IC50[BTK(C481S)]/IC50[BTK(WT)]), the C481S mutation-resistance was 1.3.
Take `COc1ccc(-c2cc3c(-c4cccc(-n5ccc6cc(C7CC7)cc(F)c6c5=O)c4CO)nc(N)nc3[nH]2)cc1` [Example 16, 2-{3-[2-amino-6-(4-methoxyphenyl)-7H-pyrrolo[2,3-d]pyrimidin-4-yl]-2-(hydroxymethyl)phenyl}-6-cyclopropyl-8-fluoroisoquinolin-1(2H)-one]: the inhibition at 0.03 µM on BTK is at least 90%. The IC50 at dephosphorylated BTK is below 10 nM.
With `COc1cccc(-c2nc3c(-c4cccc(-n5ccc6cc(C7CC7)cc(F)c6c5=O)c4CO)nc(N)nc3[nH]2)c1` [Example 18, 2-{3-[2-amino-8-(3-methoxyphenyl)-9H-purin-6-yl]-2-(hydroxymethyl)phenyl}-6-cyclopropyl-8-fluoroisoquinolin-1(2H)-one], the inhibition at 0.03 µM on BTK is at least 90%. For the same compound, the IC50 at dephosphorylated BTK is below 10 nM.
`Nc1nc(-c2cccc(-n3ccc4cc(C5CC5)cc(F)c4c3=O)c2CO)c2cc(-c3ccc(CN4CCOCC4)cc3)[nH]c2n1` [Example 26, 2-(3-{2-amino-6-[4-(morpholinomethyl)phenyl]-7H-pyrrolo[2,3-d]pyrimidin-4-yl}-2-(hydroxymethyl)phenyl)-6-cyclopropyl-8-fluoroisoquinolin-1(2H)-one]: the IC50 in the assay with OCI-Ly10 cells is 75 nM; at dephosphorylated BTK, below 10 nM. The inhibition at 0.03 µM on BTK was at least 90%.
Turning to `COc1cccc(-c2cc3c(-c4cccc(-n5ccc6cc(C7CC7)cc(F)c6c5=O)c4CO)nc(N)nc3[nH]2)c1` [Example 15, 2-{3-[2-amino-6-(3-methoxyphenyl)-7H-pyrrolo[2,3-d]pyrimidin-4-yl]-2-(hydroxymethyl)phenyl}-6-cyclopropyl-8-fluoroisoquinolin-1(2H)-one], the inhibition at 0.03 µM at BTK was at least 90%. In addition, at dephosphorylated BTK, the IC50 was below 10 nM.
For `Nc1nc(-c2cccc(-n3ccc4cc(C5CC5)cc(F)c4c3=O)c2CO)c2cn[nH]c2n1` [Example 5, 2-[3-(6-amino-1H-pyrazolo[3,4-d]pyrimidin-4-yl)-2-(hydroxymethyl)phenyl]-6-cyclopropyl-8-fluoroisoquinolin-1(2H)-one] the same measures were at least 90% and below 10 nM.
Turning to `Nc1nc(-c2cccc(-n3ccc4cc(C5CC5)cc(F)c4c3=O)c2CO)c2cc(-c3ccccc3)[nH]c2n1` [Example 1, 2-[3-(2-amino-6-phenyl-7H-pyrrolo[2,3-d]pyrimidin-4-yl)-2-(hydroxymethyl)phenyl]-6-cyclopropyl-8-fluoroisoquinolin-1(2H)-one], at BTK, the inhibition at 0.03 µM is at least 90%. On dephosphorylated BTK, the IC50 is below 10 nM.
On to `COc1ccccc1-c1cc2c(-c3cccc(-n4ccc5cc(C6CC6)cc(F)c5c4=O)c3CO)nc(N)nc2[nH]1` [Example 14, 2-{3-[2-amino-6-(2-methoxyphenyl)-7H-pyrrolo[2,3-d]pyrimidin-4-yl]-2-(hydroxymethyl)phenyl}-6-cyclopropyl-8-fluoroisoquinolin-1(2H)-one], for which the inhibition at 0.03 µM on BTK was in the range of 70 to 90%. Further, the IC50 at dephosphorylated BTK is below 10 nM.
As to `Nc1nc(-c2cccc(-n3ccc4cc(C5CC5)cc(F)c4c3=O)c2CO)c2nc(-c3cccnc3)[nH]c2n1` [Example 25, 2-{3-[2-amino-8-(pyridin-3-yl)-9H-purin-6-yl]-2-(hydroxymethyl)phenyl]-6-cyclopropyl-8-fluoroisoquinolin-1(2H)-one], the inhibition at 0.03 µM at BTK is at least 90%. The IC50 on dephosphorylated BTK is below 10 nM.
For the compound `Nc1nc(-c2cccc(-n3ccc4cc(C5CC5)cc(F)c4c3=O)c2CO)c2cc(-c3ccsc3)[nH]c2n1` [Example 32, 2-{3-[2-amino-6-(thiophen-3-yl)-7H-pyrrolo[2,3-d]pyrimidin-4-yl]-2-(hydroxymethyl)phenyl}-6-cyclopropyl-8-fluoroisoquinolin-1(2H)-one], the IC50 in the assay on OCI-Ly10 cells was 79 nM; at dephosphorylated BTK it was below 10 nM. For the same compound, at BTK, the inhibition at 0.03 µM was at least 90%.
`Nc1nc(-c2cccc(-n3ccc4cc(C5CC5)cc(F)c4c3=O)c2CO)c2c(-c3ccccc3)n[nH]c2n1` [Example 3, 2-[3-(6-amino-3-phenyl-1H-pyrazolo[3,4-d]pyrimidin-4-yl)-2-(hydroxymethyl)phenyl]-6-cyclopropyl-8-fluoroisoquinolin-1(2H)-one]: at BTK, the inhibition at 0.03 µM is at least 90%. Also, on dephosphorylated BTK, the IC50 is below 10 nM.
Regarding `Nc1nc(-c2cccc(-n3ccc4cc(C5CC5)cc(F)c4c3=O)c2CO)c2cc(-c3cccnc3)[nH]c2n1` [Example 17, 2-{3-[2-amino-6-(pyridin-3-yl)-7H-pyrrolo[2,3-d]pyrimidin-4-yl]-2-(hydroxymethyl)phenyl}-6-cyclopropyl-8-fluoroisoquinolin-1(2H)-one], the inhibition at 0.03 µM on BTK is at least 90%. Besides, the IC50 at dephosphorylated BTK is below 10 nM.

These data come from patent US10793575B2, “Oxoisoquinoline derivatives” (CARNA BIOSCIENCES, INC., priority 2016, dated 2020).
